Experiments:
H3K27me3, EZH2 = biological target: T1, H3K27me3, EZH2 (Homo sapiens, UniProt Q15910); experiment: Western blotting of EZH2i-treated cells; type: cell-based; conditions: prior to chemotherapy treatment
T1 construct: endogenous in cells; host or cells: MDA-MB-468, HCC38 or BT20
Method: Western blotting. In Extended FIG. 8b/e/g, DMSO- and EZH2i-treated cells were lysed at 95° C. for 10 minutes in Laemmli buffer (50 mM Tris-HCl [pH 6.8], 2% SDS, 5% glycerol, 2 mM DTT, 2.5 mM EDTA, 2.5 mM EGTA, 4 mM Sodium Orthovanadate, 20 mM Sodium Fluoride, protease inhibitors, phosphatase inhibitors) and proteins concentrations were measured using a Pierce BCA protein Assay Kit (Thermo Fisher Scientific, Ref: 23225/23227). 10 μg of proteins were then separated on a 4-15% Mini-PROTEAN TGX Stain-Free Gel (Bio-Rad, Ref: 4568085) at 160V. After transfer, the membrane was blocked for 1 h at room temperature in PBS pH 7.4 containing 0.1% Tween-20 and 1% milk (Regilait). Incubation anti-H3K27me3 (Dilution: 1:2000, Cell Signaling, Ref: 9733) or EZH2 (Dilution: 1:2000, Cell Signaling, Ref: 5246) or Tubulin (Dilution: 1:1000, Thermo Fisher Scientific, Ref: 31460) primary antibodies diluted in PBS pH 7.4, 0.1% Tween-20 were performed at 4° C. overnight.

[1] = tested on: MDA-MB-468, BT20 and HCC38; experiment: Number of persister cells after EZH2i pre-treatment and 5-FU; type: cell-based, human; conditions: 10 days pre-treatment, then 5-FU for 21 days
Method: Cell lines, culture conditions and drug treatments. […] All cell lines were cultured in a humidified 5% CO2 atmosphere at 37° C., and were tested as mycoplasma negative. […] Cells were treated with 5 μM of 5-FU (Sigma, Ref: […]) alone or in combination with KDM6A/Bi or EZH2i for indicated days. […] Cell proliferation, doubling time and IC50. MDA-MB-468, HCC38 and BT20 cells were stained with Trypan Blue (Invitrogen, Ref: T10282) exclusion test, and counted using a Countess automated cell counter (Invitrogen, Ref: C10228) at indicated time of treatment (FIG. 4a and Extended FIG. 8a/d/f).

T1 sequence (Q15910 whole entry): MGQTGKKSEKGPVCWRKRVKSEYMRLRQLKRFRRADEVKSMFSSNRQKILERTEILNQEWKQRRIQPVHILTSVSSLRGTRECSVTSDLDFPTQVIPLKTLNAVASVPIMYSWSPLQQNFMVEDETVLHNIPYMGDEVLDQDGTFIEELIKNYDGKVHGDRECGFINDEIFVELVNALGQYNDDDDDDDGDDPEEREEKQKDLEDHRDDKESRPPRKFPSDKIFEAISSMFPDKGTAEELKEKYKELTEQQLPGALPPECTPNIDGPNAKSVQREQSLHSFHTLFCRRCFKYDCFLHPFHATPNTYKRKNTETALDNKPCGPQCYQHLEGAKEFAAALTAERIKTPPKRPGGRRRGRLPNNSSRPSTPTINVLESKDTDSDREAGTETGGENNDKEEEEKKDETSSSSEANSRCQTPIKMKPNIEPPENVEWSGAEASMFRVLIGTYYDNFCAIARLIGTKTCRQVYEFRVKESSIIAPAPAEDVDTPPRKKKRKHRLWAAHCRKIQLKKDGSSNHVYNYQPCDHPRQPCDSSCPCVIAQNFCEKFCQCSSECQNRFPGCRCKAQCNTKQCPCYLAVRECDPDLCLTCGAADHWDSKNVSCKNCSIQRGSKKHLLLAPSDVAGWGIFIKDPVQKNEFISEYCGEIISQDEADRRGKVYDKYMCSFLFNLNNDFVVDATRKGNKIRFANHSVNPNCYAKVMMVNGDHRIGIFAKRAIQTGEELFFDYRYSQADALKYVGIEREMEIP
T1 sequence (O75530 whole entry partner): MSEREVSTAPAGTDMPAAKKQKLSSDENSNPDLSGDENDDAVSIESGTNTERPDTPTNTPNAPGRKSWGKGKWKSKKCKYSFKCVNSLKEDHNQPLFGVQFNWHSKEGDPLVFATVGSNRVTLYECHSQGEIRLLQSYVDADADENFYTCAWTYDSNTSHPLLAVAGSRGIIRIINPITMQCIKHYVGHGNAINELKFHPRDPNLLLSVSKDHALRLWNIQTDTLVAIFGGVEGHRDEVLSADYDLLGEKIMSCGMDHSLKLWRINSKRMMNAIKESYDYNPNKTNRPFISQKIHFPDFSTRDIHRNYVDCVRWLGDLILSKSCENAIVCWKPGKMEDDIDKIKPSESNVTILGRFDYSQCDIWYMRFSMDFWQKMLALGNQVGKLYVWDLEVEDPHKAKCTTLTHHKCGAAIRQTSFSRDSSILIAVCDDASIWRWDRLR
T1 sequence (Q15022 whole entry partner): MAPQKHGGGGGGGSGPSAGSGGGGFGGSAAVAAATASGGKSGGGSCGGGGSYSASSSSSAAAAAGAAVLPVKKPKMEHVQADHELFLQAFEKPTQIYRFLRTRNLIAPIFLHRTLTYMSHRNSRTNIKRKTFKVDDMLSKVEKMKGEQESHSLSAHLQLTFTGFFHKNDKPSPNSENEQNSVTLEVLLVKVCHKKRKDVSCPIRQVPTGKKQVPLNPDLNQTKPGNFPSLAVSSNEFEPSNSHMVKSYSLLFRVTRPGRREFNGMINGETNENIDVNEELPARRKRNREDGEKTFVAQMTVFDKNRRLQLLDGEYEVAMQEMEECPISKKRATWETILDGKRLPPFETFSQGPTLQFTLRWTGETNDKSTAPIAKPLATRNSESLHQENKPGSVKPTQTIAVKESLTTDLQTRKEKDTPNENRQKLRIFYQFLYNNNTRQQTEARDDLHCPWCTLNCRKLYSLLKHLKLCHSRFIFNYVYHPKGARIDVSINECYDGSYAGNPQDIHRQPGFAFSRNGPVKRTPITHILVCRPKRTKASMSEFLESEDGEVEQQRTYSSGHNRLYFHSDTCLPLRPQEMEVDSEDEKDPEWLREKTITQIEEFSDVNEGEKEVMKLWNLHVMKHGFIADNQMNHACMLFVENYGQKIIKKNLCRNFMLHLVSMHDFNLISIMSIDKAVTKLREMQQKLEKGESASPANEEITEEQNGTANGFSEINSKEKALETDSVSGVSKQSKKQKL

- EZH2 protein levels (H3K27me3, EZH2): without perturbing EZH2 protein levels
- H3K27me3 level (H3K27me3, EZH2): erasing H3K27me3
SMILES: CCCc1cc(C)[nH]c(=O)c1CNC(=O)c1cc(-c2ccc(N3CCN(C(C)C)CC3)nc2)cc2c1cnn2C(C)C [EZH2i-1]
- number of persister cells [1]: increased the number of persister cells

Reference: patent US20260266837A1, “Methods for Cancer Recurrence Detection and Treatment Thereof” (Institut Curie, priority 2022, published 2026)
